{"source": "the supplement of paper PMC11061612", "key": {"[1]": {"system": "SCC-9 (Oral Cavity Carcinoma)", "assay": "combination Emax (second highest fraction inhibited in the dose matrix, 72 h); higher = more inhibition; extreme values may be limits of the assay", "how_it_was_run": "(§1)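 Cell lines in DMEM/F12 or RPMI with 10% FBS were plated in 1536-well plates, held 24 hours at 37°C, 5% CO2, then given two-drug dose matrices for 72 hours (DMSO typically 0.2%). Viability was read by CellTiter-Glo 2.0 luminescence and scaled as inhibition from 0 (vehicle wells) to 1 (blank wells). Combination Emax is the second-highest inhibition in the matrix; Bliss excess is observed combination effect minus expected EA + EB − EA·EB, EA and EB being single-agent effects.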"}, "[2]": {"system": "H-EMC-SS (Chondrosarcoma)", "assay": "combination Emax (second highest fraction inhibited in the dose matrix, 72 h); higher = more inhibition; extreme values may be limits of the assay", "how_it_was_run": "as §1"}, "[3]": {"system": "SNU-C1 (Colorectal Carcinoma)", "assay": "Bliss excess, mean over the matrix (fraction); higher = more synergy", "how_it_was_run": "as §1"}, "[4]": {"system": "KP-2 (Pancreatic Carcinoma)", "assay": "Bliss excess, mean over the matrix (fraction); higher = more synergy", "how_it_was_run": "as §1"}, "[5]": {"system": "IMR-5 (Neuroblastoma)", "assay": "Bliss excess, mean over the matrix (fraction); higher = more synergy", "how_it_was_run": "as §1"}, "[6]": {"system": "EMC-BAC-2 (Non-Small Cell Lung Carcinoma)", "assay": "Bliss excess, mean over the matrix (fraction); higher = more synergy", "how_it_was_run": "as §1"}, "[7]": {"system": "KYSE-50 (Esophageal Squamous Cell Carcinoma)", "assay": "Bliss excess, mean over the matrix (fraction); higher = more synergy", "how_it_was_run": "as §1"}, "[8]": {"system": "HSC-2 (Oral Cavity Carcinoma)", "assay": "Bliss excess, mean over the matrix (fraction); higher = more synergy", "how_it_was_run": "as §1"}, "[9]": {"system": "RPMI-7951 (Melanoma)", "assay": "Bliss excess, mean over the matrix (fraction); higher = more synergy", "how_it_was_run": "as §1"}, "[10]": {"system": "SCC-9 (Oral Cavity Carcinoma)", "assay": "Bliss excess, mean over the matrix (fraction); higher = more synergy", "how_it_was_run": "as §1"}, "[11]": {"system": "DG-75 (Burkitt's Lymphoma)", "assay": "Bliss excess, mean over the matrix (fraction); higher = more synergy", "how_it_was_run": "as §1"}, "[12]": {"system": "GI-1 (Glioblastoma)", "assay": "Bliss excess, mean over the matrix (fraction); higher = more synergy", "how_it_was_run": "as §1"}, "[13]": {"system": "NCI-H322M (Lung Adenocarcinoma)", "assay": "Bliss excess, mean over the matrix (fraction); higher = more synergy", "how_it_was_run": "as §1"}, "[14]": {"system": "PF-382 (T-Lymphoblastic Leukemia)", "assay": "Bliss excess, mean over the matrix (fraction); higher = more synergy", "how_it_was_run": "as §1"}, "[15]": {"system": "EW-18 (Ewing's Sarcoma)", "assay": "Bliss excess, mean over the matrix (fraction); higher = more synergy", "how_it_was_run": "as §1"}, "[16]": {"system": "NCI-H513 (Other Solid Carcinomas)", "assay": "Bliss excess, mean over the matrix (fraction); higher = more synergy", "how_it_was_run": "as §1"}, "[17]": {"system": "EW-3 (Ewing's Sarcoma)", "assay": "Bliss excess, mean over the matrix (fraction); higher = more synergy", "how_it_was_run": "as §1"}, "[18]": {"system": "H-EMC-SS (Chondrosarcoma)", "assay": "Bliss excess, mean over the matrix (fraction); higher = more synergy", "how_it_was_run": "as §1"}, "[19]": {"system": "LOU-NH91 (Squamous Cell Lung Carcinoma)", "assay": "Bliss excess, mean over the matrix (fraction); higher = more synergy", "how_it_was_run": "as §1"}, "[20]": {"system": "EW-13 (Ewing's Sarcoma)", "assay": "Bliss excess, mean over the matrix (fraction); higher = more synergy", "how_it_was_run": "as §1"}}}
{"smiles": "CCc1c2c(nc3ccc(O)cc13)-c1cc3c(c(=O)n1C2)COC(=O)[C@]3(O)CC", "note": "[SN-38] + O=C(c1cc(Cc2n[nH]c(=O)c3ccccc23)ccc1F)N1CCN(C(=O)C2CC2)CC1 [Olaparib] (first compound max 0.3 µM, 7x7, partner max 10 µM)", "values": [{"measurement": "combination Emax", "setting": "[1]", "value": 0.365}, {"measurement": "combination Emax", "setting": "[2]", "value": 0.676}, {"measurement": "Bliss excess", "setting": "[3]", "value": -0.0419}, {"measurement": "Bliss excess", "setting": "[4]", "value": 0.0564}, {"measurement": "Bliss excess", "setting": "[5]", "value": 0.0721}, {"measurement": "Bliss excess", "setting": "[6]", "value": 0.0721}, {"measurement": "Bliss excess", "setting": "[7]", "value": 0.0126}, {"measurement": "Bliss excess", "setting": "[8]", "value": 0.102}, {"measurement": "Bliss excess", "setting": "[9]", "value": 0.0656}, {"measurement": "Bliss excess", "setting": "[10]", "value": 0.0207}, {"measurement": "Bliss excess", "setting": "[11]", "value": 0.0451}, {"measurement": "Bliss excess", "setting": "[12]", "value": 0.0652}, {"measurement": "Bliss excess", "setting": "[13]", "value": 0.0495}, {"measurement": "Bliss excess", "setting": "[14]", "value": 0.0471}, {"measurement": "Bliss excess", "setting": "[15]", "value": 0.034}, {"measurement": "Bliss excess", "setting": "[16]", "value": 0.0188}, {"measurement": "Bliss excess", "setting": "[17]", "value": -0.0057}, {"measurement": "Bliss excess", "setting": "[18]", "value": 0.0825}, {"measurement": "Bliss excess", "setting": "[19]", "value": 0.0095}, {"measurement": "Bliss excess", "setting": "[20]", "value": 0.0804}]}
